This passage reports mortality results from patent US20140243196A1, “Carbamoylmethoxy- and Carbamoylmethylthio- and Carbamoylmethylamino Benzamides for Combating Invertebrate Pests” (BASF SE, priority 2011, published 2014).

The structures appear in SMILES notation.

Common to all, as to assay type: in vivo
For assay [1], the system named is Boll Weevil (Anthonomus grandis). In words: Boll weevil microtiter plate insect diet test. Particulars: 120 h, egg and larval mortality, 5 days, read-out: mortality in comparison with untreated controls. How it is done:
B.3 Boll Weevil (Anthonomus grandis)
For evaluating control of boll weevil (Anthonomus grandis) the test unit consisted of 24-well-microtiter plates containing an insect diet and 20-30 A. grandis eggs.
The compounds were formulated using a solution containing 75% v/v water and 25% v/v DMSO. Different concentrations of formulated compounds were sprayed onto the insect diet at 20 μl, using a custom built micro atomizer, at two replications.
After application, microtiter plates were incubated at about 23±1° C. and about 50±5% relative humidity for 5 days. Egg and larval mortality was then visually assessed.

Assay [2] concerns Southern Armyworm (Spodoptera eridiana). In words: Southern armyworm foliar spray test on lima bean plants. Particulars: 96 h, larvae on sprayed lima bean plants, 4 days after treatment, read-out: mortality in comparison with untreated controls. Here is the method:
B.2 Southern Armyworm (Spodoptera eridiana)
(§1) The active compounds were formulated in cyclohexanone as a 10,000 ppm solution supplied in tubes. The tubes were inserted into an automated electrostatic sprayer equipped with an atomizing nozzle and they served as stock solutions for which lower dilutions were made in 50% acetone:50% water (v/v). A nonionic surfactant (Kinetic®) was included in the solution at a volume of 0.01% (v/v).
Lima bean plants (variety Sieva) were grown 2 plants to a pot and selected for treatment at the 1st true leaf stage. Test solutions were sprayed onto the foliage by an automated electrostatic plant sprayer equipped with an atomizing spray nozzle. The plants were dried in the sprayer fume hood and then removed from the sprayer. Each pot was placed into perforated plastic bags with a zip closure. About 10 to 11 armyworm larvae were placed into the bag and the bags zipped closed. Test plants were maintained in a growth room at about 25° C. and about 20-40% relative humidity for 4 days, avoiding direct exposure to fluorescent light (24 hour photoperiod) to prevent trapping of heat inside the bags. Mortality and reduced feeding were assessed 4 days after treatment, compared to untreated control plants.

Assay [3] has as its system Diamond Backmoth (Plutella xylostella). Kind of assay: Diamond backmoth leaf-dip test on cabbage leaves. Conditions: 3rd instar larvae on dipped cabbage leaves, 72 hours after treatment, read-out: mortality in comparison with untreated controls. How it is done: B.1 Diamond Backmoth (Plutella xylostella)
The active compound was dissolved at the desired concentration in a mixture of 1:1 (vol:vol) distilled water: acteon. Surfactant (Alkamuls® EL 620) was added at a rate of 0.1% (vol/vol). The test solution was prepared at the day of use.
Leaves of cabbage were dipped in test solution and air-dried. Treated leaves were placed in petri dishes lined with moist filter paper and inoculated with ten 3rd instar larvae. Mortality was recorded 72 hours after treatment. Feeding damages were also recorded using a scale of 0-100%.

The test system of assay [4] is Tobacco Budworm (Heliothis virescens). In words: Tobacco budworm microtiter plate insect diet test. Particulars: 120 h, egg and larval mortality, 5 days, read-out: mortality in comparison with untreated controls. How it is done: B.4 Tobacco Budworm (Heliothis virescens) I
For evaluating control of tobacco budworm (Heliothis virescens) the test unit consisted of 96-well-microtiter plates containing an insect diet and 15-25 H. virescens eggs.
The compounds were formulated using a solution containing 75% v/v water and 25% v/v DMSO. Different concentrations of formulated compounds were sprayed onto the insect diet at 10 μl, using a custom built micro atomizer, at two replications.
After application, microtiter plates were incubated at about 28±1° C. and about 80±5% relative humidity for 5 days. Egg and larval mortality was then visually assessed.

Assay [5] concerns Green Peach Aphid (Myzus persicae). In words: Green peach aphid spray test on bell pepper plants. Conditions: 120 h, aphids on sprayed bell pepper plants, after 5 days, read-out: mortality in comparison with untreated controls.
Source text: B.6 Green Peach Aphid (Myzus persicae)
as §1
Bell pepper plants at the first true-leaf stage were infested prior to treatment by placing heavily infested leaves from the main colony on top of the treatment plants. Aphids were allowed to transfer overnight to accomplish an infestation of 30-50 aphids per plant and the host leaves were removed. The infested plants were then sprayed by an automated electrostatic plant sprayer equipped with an atomizing spray nozzle. The plants were dried in the sprayer fume hood, removed, and then maintained in a growth room under fluorescent lighting in a 24-hr photoperiod at about 25° C. and about 20-40% relative humidity. Aphid mortality on the treated plants, relative to mortality on untreated control plants, was determined after 5 days.

For `Cc1cc(Cl)cc(C(=O)NOCC(=O)N(C)C)c1NC(=O)c1ccc(C(F)(F)F)cc1-c1ncccc1Cl` [compound 1-1, 5-chloro-2-[2-(3-chloro-pyridin-2-yl)-4-trifluoromethyl-benzoylamino]-N-dimethylcarbamoylmethoxy-3-methyl-benzamide], the mortality at 2500 ppm in assay [1], in assay [4] and in assay [5] was above 75% throughout. For the same compound, the mortality at 500 ppm in assay [2] and in assay [3] was at least 75% throughout.

A word on the mortality: it is the percentage killed.
